Measurements as given in PMC7827406, “Structure–Activity Relationship (SAR) Study of Spautin-1 to Entail the Discovery of Novel NEK4 Inhibitors” (International Journal of Molecular Sciences, 2021).
Like-named read-outs stand apart in the source and are kept apart here.

Legend:
Assay in all cases: biochemical
[1] = biological target: T1, MAPK2(m) (Mus musculus, UniProt P63085); parameters: Eurofins kinase panel, residual kinase activity (%) at 10 uM relative to DMSO
T1 construct: gene Mapk1
Experimental: (§1) Eurofins performed a “Full KP Panel [Km ATP], KinaseProfile” which contains 429 radiometric kinase activity assays. The remaining kinase activity (%) was determined after treatment with the compounds at a concentration of 10 µM (Cfr. supporting information). Since we could not confirm the interaction between Spautin-1 analogues and USP13, a kinase screening was performed using a set of four compounds (Spautin-1 and three analogues) to discover off-targets and identify kinases that are potentially responsible for the reduction in cell viability observed in our screen (Table 2). The KINOMEscan from Eurofins was performed (see Table S1). This screen consists of a competitive binding assay in which the DNA-tagged kinase is incubated with one of the compounds in the presence of immobilized active site binding ligands. Binding of the compounds to the kinase hampers the binding of the kinase to the ligands and this inhibition was quantified by qPCR.

[2] = biological target: T2, MAPK1(h) (Homo sapiens, UniProt P27361); parameters: Eurofins kinase panel, residual kinase activity (%) at 10 uM relative to DMSO
T2 construct: gene MAPK3
T2 sequence (P27361 whole entry): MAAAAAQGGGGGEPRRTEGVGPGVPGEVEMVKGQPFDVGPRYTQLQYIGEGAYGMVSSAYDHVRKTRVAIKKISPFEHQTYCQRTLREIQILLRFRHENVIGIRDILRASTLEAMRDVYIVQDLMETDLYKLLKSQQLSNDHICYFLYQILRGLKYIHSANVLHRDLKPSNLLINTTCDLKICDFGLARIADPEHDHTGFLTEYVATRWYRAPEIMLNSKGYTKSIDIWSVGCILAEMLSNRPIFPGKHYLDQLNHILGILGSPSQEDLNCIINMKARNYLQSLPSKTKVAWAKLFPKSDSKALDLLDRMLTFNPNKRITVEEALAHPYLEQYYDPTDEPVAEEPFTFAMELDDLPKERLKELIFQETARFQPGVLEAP
Experimental: as §1

[3] = biological target: T3, MLCK(h) (Homo sapiens, UniProt Q15746); parameters: Eurofins kinase panel, residual kinase activity (%) at 10 uM relative to DMSO
T3 construct: gene MYLK
Experimental: as §1

[4] = biological target: T4, MAPK2(h) (Homo sapiens, UniProt P28482); parameters: Eurofins kinase panel, residual kinase activity (%) at 10 uM relative to DMSO
T4 construct: gene MAPK1
T4 sequence (P28482 whole entry): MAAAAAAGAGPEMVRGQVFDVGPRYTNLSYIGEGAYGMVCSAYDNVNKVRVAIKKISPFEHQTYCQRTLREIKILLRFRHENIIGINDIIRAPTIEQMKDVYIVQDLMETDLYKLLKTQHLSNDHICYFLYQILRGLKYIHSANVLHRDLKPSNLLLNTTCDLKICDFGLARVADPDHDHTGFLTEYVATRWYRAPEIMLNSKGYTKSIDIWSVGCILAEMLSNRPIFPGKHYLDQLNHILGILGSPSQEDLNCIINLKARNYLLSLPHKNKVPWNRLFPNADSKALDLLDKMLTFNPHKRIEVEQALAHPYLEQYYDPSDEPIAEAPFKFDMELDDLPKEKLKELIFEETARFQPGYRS
Experimental: as §1

[5] = biological target: T5, ACTR2(h) (Homo sapiens, UniProt P27037); parameters: Eurofins kinase panel, residual kinase activity (%) at 10 uM relative to DMSO
T5 construct: gene ACVR2A
T5 sequence (P27037 whole entry): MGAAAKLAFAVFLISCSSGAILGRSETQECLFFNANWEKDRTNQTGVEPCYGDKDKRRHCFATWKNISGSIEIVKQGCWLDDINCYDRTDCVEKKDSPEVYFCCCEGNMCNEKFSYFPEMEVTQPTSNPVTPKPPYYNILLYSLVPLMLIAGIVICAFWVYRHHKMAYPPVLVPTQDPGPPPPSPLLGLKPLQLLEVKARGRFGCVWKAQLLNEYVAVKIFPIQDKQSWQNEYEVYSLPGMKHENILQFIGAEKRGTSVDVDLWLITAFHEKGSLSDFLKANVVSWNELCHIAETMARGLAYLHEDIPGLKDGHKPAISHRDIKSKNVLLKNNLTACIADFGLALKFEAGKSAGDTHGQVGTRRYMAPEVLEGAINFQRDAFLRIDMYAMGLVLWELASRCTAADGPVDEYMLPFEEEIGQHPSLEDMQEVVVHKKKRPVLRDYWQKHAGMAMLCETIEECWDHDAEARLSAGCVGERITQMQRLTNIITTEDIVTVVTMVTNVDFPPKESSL
Experimental: as §1

[6] = biological target: mTOR(h) (Homo sapiens, UniProt P42345); parameters: Eurofins KinaseProfiler full panel at Km ATP, residual kinase activity (%) relative to DMSO
Experimental: (§2) Eurofins performed a “Full KP Panel [Km ATP], KinaseProfile” which contains 429 radiometric kinase activity assays. The remaining kinase activity (%) was determined after treatment with the compounds at a concentration of 10 µM (Cfr. supporting information). Since we could not confirm the interaction between Spautin-1 analogues and USP13, a kinase screening was performed using a set of four compounds (Spautin-1 and three analogues) to discover off-targets and identify kinases that are potentially responsible for the reduction in cell viability observed in our screen (Table 2). The KINOMEscan from Eurofins was performed (see Table S1). This screen consists of a competitive binding assay in which the DNA-tagged kinase is incubated with one of the compounds in the presence of immobilized active site binding ligands. Binding of the compounds to the kinase hampers the binding of the kinase to the ligands and this inhibition was quantified by qPCR. The residual kinase activity, which represents the percentage of kinase attached to the immobilized ligands, was determined for 428 kinases at a standard screening concentration of 10 µM of the compounds dissolved in DMSO [61].

[7] = biological target: Blk(h) (Homo sapiens, UniProt P51451); parameters: Eurofins KinaseProfiler full panel at Km ATP, residual kinase activity (%) relative to DMSO
Blk(h), sequence (P51451 whole entry): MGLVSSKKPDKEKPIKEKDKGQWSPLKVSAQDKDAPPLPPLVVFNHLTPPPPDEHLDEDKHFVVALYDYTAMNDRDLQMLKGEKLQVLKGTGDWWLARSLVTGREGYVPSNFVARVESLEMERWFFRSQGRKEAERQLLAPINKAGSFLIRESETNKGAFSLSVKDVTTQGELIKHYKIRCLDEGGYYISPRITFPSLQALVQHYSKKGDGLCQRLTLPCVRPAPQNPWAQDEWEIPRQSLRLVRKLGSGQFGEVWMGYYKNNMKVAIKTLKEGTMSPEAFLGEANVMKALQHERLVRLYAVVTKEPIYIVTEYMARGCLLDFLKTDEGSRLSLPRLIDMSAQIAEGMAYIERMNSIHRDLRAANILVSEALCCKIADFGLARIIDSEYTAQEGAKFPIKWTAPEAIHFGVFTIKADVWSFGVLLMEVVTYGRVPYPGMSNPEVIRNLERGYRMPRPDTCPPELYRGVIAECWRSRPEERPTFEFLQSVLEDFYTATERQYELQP
Experimental: as §2

[8] = biological target: T6, PKD2(h) (Homo sapiens, UniProt Q9BZL6); parameters: Eurofins KinaseProfiler full panel at Km ATP, residual kinase activity (%) relative to DMSO
T6 construct: gene PRKD2
T6 sequence (Q9BZL6 1-878): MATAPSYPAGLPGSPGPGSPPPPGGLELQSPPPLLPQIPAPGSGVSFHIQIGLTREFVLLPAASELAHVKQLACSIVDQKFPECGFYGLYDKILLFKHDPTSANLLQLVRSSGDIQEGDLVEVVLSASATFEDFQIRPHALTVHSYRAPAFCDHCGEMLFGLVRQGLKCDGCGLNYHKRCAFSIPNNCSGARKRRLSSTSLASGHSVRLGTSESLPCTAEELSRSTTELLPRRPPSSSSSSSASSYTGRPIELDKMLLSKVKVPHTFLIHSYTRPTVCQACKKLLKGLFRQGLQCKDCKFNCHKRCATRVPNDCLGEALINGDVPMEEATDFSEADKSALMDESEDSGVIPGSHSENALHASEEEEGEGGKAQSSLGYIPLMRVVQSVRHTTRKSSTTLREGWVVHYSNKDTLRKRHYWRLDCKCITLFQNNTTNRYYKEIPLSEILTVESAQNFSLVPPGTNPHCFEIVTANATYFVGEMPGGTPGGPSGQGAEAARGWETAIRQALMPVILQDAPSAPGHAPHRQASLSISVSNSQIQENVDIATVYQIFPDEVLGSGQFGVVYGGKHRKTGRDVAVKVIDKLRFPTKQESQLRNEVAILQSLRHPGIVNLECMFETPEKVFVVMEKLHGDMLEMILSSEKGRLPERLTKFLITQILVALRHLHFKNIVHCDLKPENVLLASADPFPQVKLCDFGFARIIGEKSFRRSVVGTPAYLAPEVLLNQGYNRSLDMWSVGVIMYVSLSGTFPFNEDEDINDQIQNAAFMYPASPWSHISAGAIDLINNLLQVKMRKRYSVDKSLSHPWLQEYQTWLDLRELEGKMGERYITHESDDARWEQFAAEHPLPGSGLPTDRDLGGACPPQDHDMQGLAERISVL
Experimental: as §2

[9] = biological target: T7, PKCα(h) (Homo sapiens, UniProt P17252); parameters: Eurofins KinaseProfiler full panel at Km ATP, residual kinase activity (%) relative to DMSO
T7 construct: gene PRKCA
Experimental: as §2

[10] = biological target: T8, TrkC(h) (Homo sapiens, UniProt Q16288); parameters: Eurofins KinaseProfiler full panel at Km ATP, residual kinase activity (%) relative to DMSO
T8 construct: gene NTRK3
T8 sequence (Q16288 whole entry): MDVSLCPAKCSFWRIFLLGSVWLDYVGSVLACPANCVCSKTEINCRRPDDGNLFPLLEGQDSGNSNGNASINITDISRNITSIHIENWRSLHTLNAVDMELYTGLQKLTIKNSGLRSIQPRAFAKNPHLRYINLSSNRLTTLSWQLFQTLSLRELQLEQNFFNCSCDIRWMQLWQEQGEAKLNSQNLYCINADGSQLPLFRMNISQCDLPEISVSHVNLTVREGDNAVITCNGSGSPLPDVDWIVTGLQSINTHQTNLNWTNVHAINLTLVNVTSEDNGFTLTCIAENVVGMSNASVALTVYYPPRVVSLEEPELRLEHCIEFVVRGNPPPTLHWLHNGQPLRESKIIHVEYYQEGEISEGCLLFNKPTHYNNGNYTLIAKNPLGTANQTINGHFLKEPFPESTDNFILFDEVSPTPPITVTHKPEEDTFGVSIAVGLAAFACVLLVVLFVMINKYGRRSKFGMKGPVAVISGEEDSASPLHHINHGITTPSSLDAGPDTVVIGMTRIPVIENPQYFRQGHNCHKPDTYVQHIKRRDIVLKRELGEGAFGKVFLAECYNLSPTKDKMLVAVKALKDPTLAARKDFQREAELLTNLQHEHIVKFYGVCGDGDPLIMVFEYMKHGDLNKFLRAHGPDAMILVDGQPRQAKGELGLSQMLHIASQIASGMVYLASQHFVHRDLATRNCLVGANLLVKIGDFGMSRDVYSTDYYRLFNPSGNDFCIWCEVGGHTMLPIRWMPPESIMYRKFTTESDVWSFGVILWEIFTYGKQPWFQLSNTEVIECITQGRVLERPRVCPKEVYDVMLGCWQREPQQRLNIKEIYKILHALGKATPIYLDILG
Experimental: as §2

[11] = read-out: Residual activity (%) 5at
[12] = read-out: Residual activity (%) 5as
[13] = read-out: Residual activity (%) 5ay
[14] = read-out: Residual activity (%) Spautin-1
[15] = read-out: Residual activity (%) Spautin-1 5aa

T1 sequence (P63085 whole entry): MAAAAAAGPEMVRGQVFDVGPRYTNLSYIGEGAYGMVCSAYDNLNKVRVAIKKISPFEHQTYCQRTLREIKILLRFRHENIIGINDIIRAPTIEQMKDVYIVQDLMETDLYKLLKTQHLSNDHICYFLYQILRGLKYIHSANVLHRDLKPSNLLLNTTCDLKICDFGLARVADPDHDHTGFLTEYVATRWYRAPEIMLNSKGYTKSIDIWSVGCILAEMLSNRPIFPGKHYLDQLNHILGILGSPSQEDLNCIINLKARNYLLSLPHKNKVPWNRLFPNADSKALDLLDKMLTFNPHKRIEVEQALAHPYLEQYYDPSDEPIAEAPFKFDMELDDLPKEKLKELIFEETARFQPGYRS

In the case of `Fc1ccc2ncnc(NCCc3ccc(Cl)cc3)c2c1` [5at, N-[2-(4-Chlorophenyl)Ethyl]-6-Fluoro-4-Quinazolinamine], the remaining activity at 10 µM [1, 11] is reported as 91%, the remaining activity at 10 µM [2, 11] is reported as 114% and the remaining activity at 10 µM [3, 11] is reported as 86%. For the same compound, the remaining activity at 10 µM [4, 11] was 83%, the remaining activity at 10 µM [5, 11] was 97% and the remaining activity at 10 µM [6, 11] was 80%. For the same compound, the remaining activity at 10 µM [7, 11] was 91%, the remaining activity at 10 µM [8, 11] was 76% and the remaining activity at 10 µM [9, 11] was 79%. For the same compound, the remaining activity at 10 µM [10, 11] was 97%.

With `Fc1ccc(CCNc2ncnc3ccc(F)cc23)cc1` [5as, 6-Fluoro-N-[2-(4-Fluorophenyl)Ethyl]-4-Quinazolinamine] the remaining activity at 10 µM [1, 12] was 105%, the remaining activity at 10 µM [2, 12] was 93% and the remaining activity at 10 µM [3, 12] was 88%. It also gave a remaining activity at 10 µM [4, 12] of 87%, a remaining activity at 10 µM [5, 12] of 83% and a remaining activity at 10 µM [6, 12] of 76%. For the same compound, the remaining activity at 10 µM [7, 12] was 100%, the remaining activity at 10 µM [8, 12] was 74% and the remaining activity at 10 µM [9, 12] was 94%. It also gave a remaining activity at 10 µM [10, 12] of 104%.

`COc1ccc2ncnc(Nc3cccc(F)c3)c2c1` [5ay, N-(3-Fluorophenyl)-6-Methoxy-4-Quinazolinamine] showed a remaining activity at 10 µM [1, 13] of 118%, a remaining activity at 10 µM [2, 13] of 84% and a remaining activity at 10 µM [3, 13] of 69%. It also gave a remaining activity at 10 µM [4, 13] of 100%, a remaining activity at 10 µM [5, 13] of 85% and a remaining activity at 10 µM [6, 13] of 77%. For the same compound, the remaining activity at 10 µM [7, 13] was 85%, the remaining activity at 10 µM [8, 13] was 77% and the remaining activity at 10 µM [9, 13] was 86%. It also gave a remaining activity at 10 µM [10, 13] of 114%.

Compound `Fc1ccc(CNc2ncnc3ccc(F)cc23)cc1` [5aa, 6-Fluoro-N-(4-fluorobenzyl)-4-Quinazolinamine] has a remaining activity at 10 µM [1, 14] of 104%, a remaining activity at 10 µM [2, 14] of 96% and a remaining activity at 10 µM [3, 14] of 83%. The remaining activity at 10 µM [4, 14] was 96%, the remaining activity at 10 µM [5, 14] was 92% and the remaining activity at 10 µM [6, 15] was 79%. For the same compound, the remaining activity at 10 µM [7, 15] was 97%, the remaining activity at 10 µM [8, 15] was 106% and the remaining activity at 10 µM [9, 15] was 89%. It also gave a remaining activity at 10 µM [10, 15] of 111%.
